Measurements taken from publication PMC10762035, “Molecular basis of human trace amine-associated receptor 1 activation” (Nature Communications, 2024).
Changes are numbered by the printed parent chain. “And” between values parts separate entries of the source, which are not always exact repeats. Equal values may be shown once.

Experiments:
Assay type in all cases: cell-based
[1] = molecular target: T1, β2AR-Nterm-hTA1-F112^3.41W (CryoEM Construct) (Homo sapiens, UniProt Q96RJ0, F112W); test: GloSensor cAMP accumulation assay, cryoEM construct;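 note: cells transiently co-transfected with the receptor construct and GloSensor cAMP biosensor, luminescence read after 30 min compound exposure at room temperature in the dark as cAMP accumulation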;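 for Normalized Luminescence Counts (N=2): normalized to the maximum response of β-PEA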
T1 construct: FLAG (N); 10xHis (N); TEV protease site (N); expressed in transfected cells; host or cells: HEK293T
T1 sequence (Q96RJ0 with tags, fused parts or gaps F112W): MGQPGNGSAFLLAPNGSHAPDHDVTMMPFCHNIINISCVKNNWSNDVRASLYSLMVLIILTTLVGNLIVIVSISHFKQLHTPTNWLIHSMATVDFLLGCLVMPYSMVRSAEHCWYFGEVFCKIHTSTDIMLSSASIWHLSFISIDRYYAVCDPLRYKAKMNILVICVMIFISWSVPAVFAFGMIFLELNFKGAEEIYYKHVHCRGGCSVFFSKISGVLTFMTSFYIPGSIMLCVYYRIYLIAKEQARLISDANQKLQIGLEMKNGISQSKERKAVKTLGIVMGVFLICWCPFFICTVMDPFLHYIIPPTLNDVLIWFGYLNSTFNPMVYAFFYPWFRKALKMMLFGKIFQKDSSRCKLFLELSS

hTA1 C96S = molecular target: T2, hTA1 C96S (Homo sapiens, UniProt Q96RJ0, C96S); test: GloSensor cAMP accumulation assay, C96S mutant; details: log[Compound]
T2 construct: expressed in transfected cells; host or cells: HEK293T
T2 sequence (Q96RJ0 1-339 C96S): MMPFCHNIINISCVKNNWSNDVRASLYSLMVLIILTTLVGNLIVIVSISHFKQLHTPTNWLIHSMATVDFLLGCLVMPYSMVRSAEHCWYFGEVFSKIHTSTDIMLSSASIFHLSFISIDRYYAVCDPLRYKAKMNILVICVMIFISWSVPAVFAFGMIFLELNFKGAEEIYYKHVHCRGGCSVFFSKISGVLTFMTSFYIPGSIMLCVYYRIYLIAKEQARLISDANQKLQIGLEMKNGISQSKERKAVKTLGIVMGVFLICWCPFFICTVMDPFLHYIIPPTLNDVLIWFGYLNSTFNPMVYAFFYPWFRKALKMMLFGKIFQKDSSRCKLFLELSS

hTA1 = molecular target: T3, hTA1 (Homo sapiens, UniProt Q96RJ0); test: GloSensor cAMP accumulation assay, concentration response, wild-type hTA1 in transfected HEK293T cells; details: for Dose-response curves for asenapine vs endogenous trace amines: log[Compound], replicate values (N=2);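 for all read-outs here: luminescence read after 30 min compound exposure at room temperature in cells preloaded with D-Luciferin, reflecting Gs-driven cAMP rise, efficacy scaled to the maximal β-PEA response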
T3 construct: expressed in transfected cells; host or cells: HEK293T
T3 sequence (Q96RJ0 1-339): T2 sequence (Q96RJ0 1-339 C96S) with S96C

hTA1 C13S = molecular target: T4, hTA1 C13S (Homo sapiens, UniProt Q96RJ0, C13S); test: GloSensor cAMP accumulation assay, C13S mutant; details: for C13S - Normalized Luminescence Counts (N=2): log[Compound], single wells
T4 construct: expressed in transfected cells; host or cells: HEK293T
T4 sequence (Q96RJ0 1-339 C13S): T2 sequence (Q96RJ0 1-339 C96S) with C13S, S96C

hTA1 I290N = molecular target: T5, hTA1 I290N (Homo sapiens, UniProt Q96RJ0, I290N); test: GloSensor cAMP accumulation assay, I290N mutant;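 note: cells transiently co-expressing hTA1 and the GloSensor cAMP biosensor, luminescence read 30 min after compound addition at room temperature, efficacy scaled to the maximal β-PEA response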
T5 construct: expressed in transfected cells; host or cells: HEK293T
T5 sequence (Q96RJ0 1-339 I290N): T2 sequence (Q96RJ0 1-339 C96S) with S96C, I290N

[2] = Cryo EM Construct, mean of each independent experiment (3 replicates)

SMILES: NCCc1ccc(Oc2ccc(O)cc2)c(I)c1 [T1AM, 3-iodothyronamine]
- ΔEmax values (each mutant value - WT average), Mean ([1]; Cryo EM Construct minus WT average): 57.4068 and 36.3707
- Emax values, Mean [1, 2]: -0.05087 and 0.4178
- pEC50 values, Mean [1, 2]: 6.078 and 6.547
- Normalized Luminescence Counts (N=2) ([1]; CryoEM Construct, log[Compound], M = -5, single replicates): 123.162 and 140.16 and 121.528 and 161.688
- Span ± SEM (Emax normalized to β-PEA) ([1]; CryoEM Construct, n=2): 115.44
- pEC50 ± SEM ([1]; CryoEM Construct, n=2): 6.3 ± 0.04
- EC50 ([1]; CryoEM Construct, n=2, read-out: EC50): 491 nM
- Normalized Luminescence Counts (hTA1 C96S; C96S, M = -5, single replicates (N=2)): -4.527 and 0.08646 and -0.5726 and 12.7948 and 5.048 and 3.112
- Normalized Luminescence Counts (hTA1 C96S; C96S, M = -5.522, single replicates (N=2)): -1.232 and -3.209 (2×) and 24.4145 and 1.175 and -2.698
- Normalized Luminescence Counts (hTA1 C96S; C96S, M = -6, single replicates (N=2)): -1.891 and -5.845 and -6.504 and 30.2243 and -2.698 and -0.7614
- Normalized Luminescence Counts (hTA1 C96S; C96S, M = -6.522, single replicates (N=2)): -5.186 (2×) and -5.845 and -10.4444 and -0.7614 and -2.698
- Normalized Luminescence Counts (hTA1 C96S; C96S, M = -7, single replicates (N=2)): -3.209 and -6.504 and -1.891 and -14.3176 and -8.508 and -10.4444
- Normalized Luminescence Counts (hTA1 C96S; C96S, M = -7.522, single replicates (N=2)): -1.891 and -5.186 (2×) and -4.6346 and 3.112 and -6.571
- Normalized Luminescence Counts (hTA1 C96S; C96S, M = -8, single replicates (N=2)): 0.08646 and -3.868 and -1.232 and 14.7315 and 18.6047 (2×)
- Normalized Luminescence Counts (hTA1 C96S; C96S, M = -8.522, single replicates (N=2)): -1.891 and -1.232 (2×) and 14.7315 (2×) and 8.922
- Normalized Luminescence Counts (hTA1 C96S; C96S, M = -9, single replicates (N=2)): -1.232 and -1.891 (2×) and 30.2243 and 37.9707 and 3.112
- Normalized Luminescence Counts (hTA1 C96S; C96S, M = -9.522, single replicates (N=2)): -3.209 and -1.891 and -1.232 and 16.6681 and 5.048 and 20.5413
- Normalized Luminescence Counts (hTA1 C96S; C96S, M = -10, single replicates (N=2)): 2.064 and -0.5726 and 0.7455 and -0.7614 and -4.6346 and -6.571
- Normalized Luminescence Counts (hTA1 C96S; C96S, M = -10.522, single replicates (N=2)): -1.891 and -3.868 and 0.08646 and 1.175 and -6.571 and -4.6346
- Normalized Luminescence Counts (hTA1 C96S; C96S, M = -11, single replicates (N=2)): 1.4045 and 0.7455 (2×) and 34.0975 (2×) and 14.7315
- Normalized Luminescence Counts (hTA1 C96S; C96S, M = -11.522, single replicates (N=2)): 1.4045 (2×) and -0.5726 and 24.4145
- Normalized Luminescence Counts (hTA1 C96S; M = -11.522, single replicates, mutant block above C178S): -0.4742 (2×) and -0.6563 and 0.6424 and -0.05214 and -0.3727
- Normalized Luminescence Counts (hTA1 C96S; M = -12, single replicates, mutant block above C178S): -0.08731 (2×) and -0.5653 and 0.1081 and 0.001279 (2×)
- Normalized Luminescence Counts (hTA1 C96S; M = -12.522, single replicates, mutant block above C178S): -0.2011 and 0.5045 and -0.6791 and -0.1056 and 0.9095 and -0.05214
- pEC50 values, Avg (hTA1; WT hTA1, average of the two experiments, Figure 2B source data): 6.129
- pEC50 values, Mean (hTA1; WT hTA1, each line an independent experiment, 3 replicates, Figure 2B source data): 6.182 and 6.077
- Emax values, Avg (hTA1; WT hTA1, β-PEA = 100, average of the two experiments): 70.45
- Emax values, Mean (hTA1; WT hTA1, β-PEA = 100, each line an independent experiment, 3 replicates): 81.6192 and 59.2734
- Emax values, Avg (hTA1; WT, average of the experiments, β-PEA = 100): 70.45
- Emax values, Avg (hTA1; WT, average of the two experiments): 70.45
- Emax values, Mean (hTA1; WT, mean of each independent experiment (3 replicates), β-PEA = 100): 81.6192 and 59.2734
- Emax values, Mean (hTA1; WT, single experiments (3 replicates each), β-PEA = 100): 81.6192 and 59.2734
- Dose-response curves for asenapine vs endogenous trace amines (hTA1; M = -5): 80.3892 and 70.8419 and 77.0287 and 53.9778 and 58.2977 and 47.0284
- Dose-response curves for asenapine vs endogenous trace amines (hTA1; M = -5.522): 67.6372 and 58.4905 and 72.8448 and 53.4613 and 47.5449 and 34.1625
- Dose-response curves for asenapine vs endogenous trace amines (hTA1; M = -6): 47.6524 and 43.0457 and 45.9165 and 36.4633 and 32.8477 and 25.2879
- Dose-response curves for asenapine vs endogenous trace amines (hTA1; M = -6.522): 27.5341 and 25.2641 and 26.1988 and 18.1976 and 14.2064 and 10.9195
- Dose-response curves for asenapine vs endogenous trace amines (hTA1; M = -7): 12.6456 and 9.641 and 11.7554 and 4.346 and 3.125 and 2.796
- Dose-response curves for asenapine vs endogenous trace amines (hTA1; M = -7.522): 2.609 and 0.272 and 1.897 and 0.1666 and -0.02121 and -0.8664
- Dose-response curves for asenapine vs endogenous trace amines (hTA1; M = -8): 1.34 and 0.4055 and 0.9619 and 0.2136 and -0.06817 and -0.9603
- Dose-response curves for asenapine vs endogenous trace amines (hTA1; M = -8.522): -0.9075 and -0.6182 and -0.5737 and -1.007 and 0.1197 and -2.04
- Dose-response curves for asenapine vs endogenous trace amines (hTA1; M = -9): -0.9521 and -0.863 and -1.419 and -0.8664 and -0.8195 and -1.618
- Dose-response curves for asenapine vs endogenous trace amines (hTA1; M = -9.522): -1.019 and -2.087 and -1.442 and -1.383 and -0.8195 and -2.228
- Dose-response curves for asenapine vs endogenous trace amines (hTA1; M = -10): -0.863 (2×) and -1.286 and -1.477 and -1.054 and -1.571
- Dose-response curves for asenapine vs endogenous trace amines (hTA1; M = -10.522): -1.531 and -2.287 and -1.464 and -1.571 and -1.336 and -1.618
- Dose-response curves for asenapine vs endogenous trace amines (hTA1; M = -11): -0.1731 and -0.9075 and -0.3734 and -0.5847 and 0.1197 and -1.054
- Dose-response curves for asenapine vs endogenous trace amines (hTA1; M = -11.522): -0.507 and -1.152 and -1.197 and -0.209 and -0.1151 and -1.054
- Dose-response curves for asenapine vs endogenous trace amines (hTA1; M = -12): -0.774 and -1.419 and -1.8645 and -1.336 (2×) and -1.571
- Dose-response curves for asenapine vs endogenous trace amines (hTA1; M = -12.522): -1.019 and -1.798 (2×) and -0.7255 and -1.43 and -2.087
- pEC50 ± SEM (hTA1; wt hTA1, HEK293T, n=3): 6.13 ± 0.04
- EC50 (hTA1; wt hTA1, HEK293T, n=3, read-out: EC50): 743 nM
- Emax (hTA1; wt hTA1, relative to β-PEA): 70.5%
- ΔpEC50 values (each mutant value - WT average) (hTA1 C13S; C13S): -0.156 and -0.1145
- Emax values (hTA1 C13S; C13S, Mean of fit per experiment): 53.0882 and 64.9586
- Span ± SEM (Emax normalized to β-PEA) (hTA1 C13S; C13S, n=2): 59.02 ± 5.94
- pEC50 ± SEM (hTA1 C13S; C13S, n=2): 5.99 ± 0.05
- EC50 (hTA1 C13S; C13S, n=2, read-out: EC50): 1010 nM
- pEC50 values, Mean (hTA1 C13S; hTA1 C13S, mean of 3 replicates, one line per independent experiment): 5.973 and 6.015
- C13S - Normalized Luminescence Counts (N=2) (hTA1 C13S; M = -5): 54.3554 and 36.9604 and 53.1374 and 65.6185 and 52.4268 and 54.7653
- C13S - Normalized Luminescence Counts (N=2) (hTA1 C13S; M = -5.522): 42.3654 and 30.6418 and 38.8635 and 53.123 and 40.9666 and 58.8174
- C13S - Normalized Luminescence Counts (N=2) (hTA1 C13S; M = -6): 26.7212 and 21.3162 and 26.3787 and 35.2187 and 26.4539 and 31.7735
- C13S - Normalized Luminescence Counts (N=2) (hTA1 C13S; M = -6.522): 13.0564 and 10.1636 and 13.437 and 17.4036 and 12.4411 and 15.1722
- increase in potency vs wild type (hTA1 I290N; I290N): about 5 fold
- Span ± SEM (Emax normalized to β-PEA) (hTA1 I290N; I290N, n=2): 76.97 ± 5.53
- pEC50 ± SEM (hTA1 I290N; I290N, n=2): 6.86 ± 0.07
- EC50 (hTA1 I290N; I290N, n=2, read-out: EC50): 139 nM
- cAMP accumulation response, single replicate values (source data, Supplementary Figure 5) (hTA1 I290N; hTA1 I290N (N=2), log[Compound], M = -5): 86.8237 and 86.3523 and 77.8671 and 98.8421
- ΔpEC50 values (each mutant value - WT average), Mean (hTA1 I290N; hTA1 I290N mutant minus WT average): 0.6614 and 0.7922
- pEC50 values, Mean (hTA1 I290N; hTA1 I290N mutant, Figure 3B source data, each grid row a separate experiment, 3 replicates): 6.791 and 6.921
- Emax values, Mean (hTA1 I290N; hTA1 I290N mutant, β-PEA set to 100, each grid row a separate experiment, 3 replicates): 82.4992 and 71.4451
